Results as given in article PMC7565984, “A Phosphorylation-Induced Switch in the Nuclear Localization Sequence of the Intrinsically Disordered NUPR1 Hampers Binding to Importin” (Biomolecules, 2020).
Where a SMILES comes first, the peptide text is derived from it.

T1: human importin α3 (Impα3) (Homo sapiens, UniProt O00629)
T1 construct: although the IBB region maintains its independence within the whole Impα3 in terms of conformation; His-tag (N); made in house; host or cells: Escherichia coli BL21 (DE3)
T1 sequence (O00629 1-521): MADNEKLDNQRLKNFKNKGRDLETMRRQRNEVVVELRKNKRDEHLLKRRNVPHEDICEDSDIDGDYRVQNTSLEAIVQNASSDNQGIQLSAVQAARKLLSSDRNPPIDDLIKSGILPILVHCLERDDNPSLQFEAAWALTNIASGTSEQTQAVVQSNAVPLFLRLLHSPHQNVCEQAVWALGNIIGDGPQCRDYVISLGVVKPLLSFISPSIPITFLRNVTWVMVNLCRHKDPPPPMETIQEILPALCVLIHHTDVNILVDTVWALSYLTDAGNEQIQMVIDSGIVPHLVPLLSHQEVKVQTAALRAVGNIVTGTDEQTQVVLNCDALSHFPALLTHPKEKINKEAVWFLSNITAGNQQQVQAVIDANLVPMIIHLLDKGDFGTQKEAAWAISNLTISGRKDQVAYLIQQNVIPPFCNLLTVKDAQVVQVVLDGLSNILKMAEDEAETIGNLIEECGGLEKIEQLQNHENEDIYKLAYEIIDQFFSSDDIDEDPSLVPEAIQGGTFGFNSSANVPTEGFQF

T2: ΔImpα3 (importin α3 without the IBB domain, residues 64-521) (Homo sapiens, UniProt O00629)
T2 construct: The His-tagged ΔImpα3 (residues 64-521) was obtained from BL21 (DE3) cells as described; His-tag; made in house; host or cells: Escherichia coli BL21 (DE3)
T2 sequence (O00629 64-521): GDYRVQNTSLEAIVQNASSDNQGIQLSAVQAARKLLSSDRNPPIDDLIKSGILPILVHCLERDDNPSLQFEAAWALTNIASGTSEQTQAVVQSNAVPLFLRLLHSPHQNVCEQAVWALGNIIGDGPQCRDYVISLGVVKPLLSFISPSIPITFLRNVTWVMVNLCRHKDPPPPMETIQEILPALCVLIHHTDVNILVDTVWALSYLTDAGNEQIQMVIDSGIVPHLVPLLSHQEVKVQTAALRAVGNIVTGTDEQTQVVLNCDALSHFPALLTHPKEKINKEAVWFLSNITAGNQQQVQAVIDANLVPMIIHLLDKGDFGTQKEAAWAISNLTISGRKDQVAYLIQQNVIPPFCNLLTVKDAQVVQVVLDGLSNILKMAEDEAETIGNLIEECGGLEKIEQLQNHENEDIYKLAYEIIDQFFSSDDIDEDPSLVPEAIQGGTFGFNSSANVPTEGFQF

T3: truncated importin α3 without the IBB domain (residues 64-521) (human, UniProt O00629 64-521)
T3 construct: human importin α3 (KPNA4) without the IBB domain, residues 64-521; also called ΔImpα3; ΔImportin
T3 sequence (looked up): T2 sequence (O00629 64-521)

B1: intact NUPR1 (full-length, 82 residues) (natural protein, UniProt O60356 1-82, looked up)
chain: MATFPPATSAPQQPPGPEDEDSSLDESDLYSLAHSYLGGGGRKGRTKREAAANTNRPSPGGHERKLVTKLQNSERKKRGARR
notes: NUPR1, UniProtKB O60356, 82 residues long (8 kDa), intact protein; also called full-length NUPR1; nuclear protein 1

What was measured:
[1] = Translational diffusion by NMR DOSY (hydrodynamic properties); format: physicochemical
Method: Concentrations of peptides in all DOSY experiments were 120 μM, and 128 scans, where the gradient strength was varied, were acquired for each curve. Translational self-diffusion measurements were performed with the pulsed gradient spin-echo sequence in the presence of 100% D2O. Experimental details have been described elsewhere. Briefly, the gradient strength was varied in sixteen linear steps between 2% and 95% of the total power of the gradient coil. The gradient strength was previously calibrated by using the value of the translational diffusion coefficient, D, for the residual proton water line in a sample containing 100% D2O in a 5-mm tube [34]. In our experiments for each peptide, the duration of the gradient was 2.25 ms, the time between the two pulse gradients in the pulse sequence was set to 200 ms, and the recovery delay between the bipolar gradients was set to 100 μs. The methyl groups with signals between 1.0 and 0.80 ppm were used for integration. Fitting of the exponential curves obtained from experimental data was carried out with KaleidaGraph (Synergy Software, Version 3.5), as described. A final concentration of 1% of dioxane, which was assumed to have a hydrodynamic radius Rh = 2.12 Å [34], was added to the solutions of each of the peptides to have a comparison for estimating their sizes.

[2] = target: T1, human importin α3 (Impα3); experiment: ITC binding of NLS-NUPR1 peptides / NUPR1 to Impα3
Method: (§1) The experimental set-up and data processing of ITC experiments has been described previously. Calorimetric titrations, performed in an Auto-iTC200 calorimeter (MicroCal, Malvern-Panalytical, Malvern, UK) consisted of series of 19 2-μL injections, with 150 s time spacing and a 750-rpm stirring speed. Impα3 or ΔImpα3 (at 10–20 μM) was loaded into the calorimetric cell and NLS-NUPR1 peptides in the syringe (150–300 μM); all solutions were prepared in buffer Tris 50 mM, pH 8. […] The binding affinity (association constant) and the binding enthalpy were estimated through a least-squares nonlinear regression data analysis, from which the Gibbs energy and the entropic contribution to the binding were calculated using well-known thermodynamic relationships. Since the binding stoichiometry is constrained by the model, the parameter n provides a fraction of the active or binding competent protein. Experiments for each peptide and importin species were performed, at least, in duplicates.

[3] = target: T2, ΔImpα3 (importin α3 without the IBB domain, residues 64-521); experiment: ITC binding of NLS-NUPR1 peptides / NUPR1 to ΔImpα3
Method: as §1

[4] = target: T3, truncated importin α3 without the IBB …; experiment: ITC; intact NUPR1 with ΔImpα3; conditions of this titration are not told (Figure S4); details: both partners purified
[5] = target: T1, human importin α3 (Impα3); details: ITC, shown in Figure S4 for comparison; previously measured; read-out: Kd (dissociation constant) of intact NUPR1 for Impα3; cited from earlier work
Description: Furthermore, we tried to dissect the affinity of the NLS region of NUPR1 for Impα3 by using a “divide and conquer” approach with the peptides comprising the region. The interaction between full-length NUPR1 and its mutants with Impα3 and ΔImpα3 was the focus of this study, but instead, we emplo ... || In this work, we tried first to find out whether the theoretically predicted NLS region of NUPR1 was capable of binding in isolation to Impα3. Second, we tried to elucidate, for the first time, the molecular bases behind the binding of an NLS region of an IDP to an importin. […] These findings allow us to draw several conclusions. […] However, t ...

[6] = ITC, 298 K, Tris 50 mM pH 8, absolute error 0.5 kcal/mol
[7] = ITC, 298 K, Tris 50 mM pH 8, calculated from Kd and ΔH, absolute error 0.7 kcal/mol

Molecule | D, translational diffusion coefficient ([1]; 283 K, pH 7.2, 50-mM deuterated Tris, 100% D2O, peptide 120 μM) | Rh, hydrodynamic radius from D ([1]; from the translational diffusion coefficient of dioxane (Rh = 2.12 Å) added to each sample) | ΔH (binding enthalpy), Impα3 [2, 6] | −TΔS (entropic contribution), Impα3 [2, 7] | Experimental binding free energy, Impα3 ([2]; from ITC, Table 2, 298 K) | ΔH (binding enthalpy), ΔImpα3 [3, 6] | −TΔS (entropic contribution), ΔImpα3 [3, 7] | Experimental binding free energy, ΔImpα3 ([3]; from ITC, Table 2, 298 K) | Kd [4] | Kd [5] | Kd ([3]; ITC, 298 K, Tris 50 mM pH 8, importin 10–20 μM in cell, peptide 150–300 μM in syringe, 1:1 model, at least duplicates, relative error 30%, read-out: Kd (dissociation constant), ΔImpα3)
CC(=O)N[C@@H](Cc1ccc(O)cc1)C(=O)N[C@H](C(=O)N[C@@H](CC(N)=O)C(=O)N[C@@H](CCCNC(=N)N)C(=O)N1CCC[C@H]1C(=O)N[C@@H](CO)C(=O)N1CCC[C@H]1C(=O)NCC(=O)NCC(=O)N[C@@H](Cc1c[nH]cn1)C(=O)N[C@@H](CCC(=O)O)C(=O)N[C@@H](CCCNC(=N)N)C(=O)N[C@@H](CCCCN)C(=O)N[C@@H](CC(C)C)C(=O)N[C@H](C(=O)N[C@H](C(=O)N[C@@H](CCCCN)C(=O)N[C@@H](CC(C)C)C(=O)N[C@@H](CCC(N)=O)C(=O)N[C@@H](CC(N)=O)C(=O)N[C@@H](CO)C(=O)N[C@@H](CCC(=O)O)C(N)=O)[C@@H](C)O)C(C)C)[C@@H](C)O [wt] (Ac-YTNRPSPGGHERKLVTKLQNSE-NH2) | 1.85 ± 0.04 cm^2 s^−1 × 10^6 | 11 ± 1 Å | 0.8 kcal/mol | -8.7 kcal/mol | -7.87 kcal/mol | -3.7 kcal/mol | -4.5 kcal/mol | -8.22 kcal/mol | – | – | –
B1 | – | – | – | – | – | – | – | – | 400 nM | 1400 nM | 440 nM
